Test system: 186277-243-T-J2-PDC spheroids with HUVEC/MSC, viability
Test: Anticancer human tumor 186277-243-T-J2-PDC patient-derived colon adenocarcinoma cell line growth inhibition [CLK]
Conditions: for IC50: curve of first compound; for viability, T/C: stronger effect = lower value; active = viability on the fitted dose curve at most 10% of control; inactive = the rest
Procedure, shortened: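 Patient-derived tumor cells grown as complex spheroids with HUVEC endothelial cells and mesenchymal stem cells, treated with drug combinations. Concentrations descend in half-log steps from near clinical Cmax, or from 10 microM if Cmax unknown.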

[1] = second compound 0.0316 µM, first compound 0.0316 µM
[2] = second compound 0.0316 µM, first compound 0.1 µM
[3] = second compound 0.0316 µM, first compound 0.316 µM
[4] = second compound 0.0316 µM, first compound 1 µM
[5] = second compound 0.1 µM, first compound 0.0316 µM
[6] = second compound 0.1 µM, first compound 0.1 µM
[7] = second compound 0.1 µM, first compound 0.316 µM
[8] = second compound 0.1 µM, first compound 1 µM
[9] = second compound 0.316 µM, first compound 0.0316 µM
[10] = second compound 0.316 µM, first compound 0.1 µM
[11] = second compound 0.316 µM, first compound 0.316 µM
[12] = second compound 0.316 µM, first compound 1 µM
[13] = second compound 1 µM, first compound 0.0316 µM
[14] = second compound 1 µM, first compound 0.1 µM
[15] = second compound 1 µM, first compound 0.316 µM
[16] = second compound 1 µM, first compound 1 µM
[17] = second compound 3.16 µM, first compound 0.0316 µM
[18] = second compound 3.16 µM, first compound 0.1 µM
[19] = second compound 3.16 µM, first compound 0.316 µM
[20] = second compound 3.16 µM, first compound 1 µM
[21] = second compound 10 µM, first compound 0.0316 µM
[22] = second compound 10 µM, first compound 0.1 µM
[23] = second compound 10 µM, first compound 0.316 µM
[24] = second compound 10 µM, first compound 1 µM
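Also: compound exposure lasted seven days before readout.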
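For viability, T/C in this document: 100% = DMSO vehicle control wells.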

CC(=O)O[C@H]1C(=O)[C@@]2(C)[C@H]([C@H](OC(=O)c3ccccc3)[C@]3(O)C[C@H](OC(=O)[C@H](O)[C@@H](NC(=O)c4ccccc4)c4ccccc4)C(C)=C1C3(C)C)[C@]1(OC(C)=O)CO[C@@H]1C[C@@H]2O + CN1CCN(c2cc(C(=O)Nc3cc4cc(-c5cnn(C)c5)ccc4cn3)ccn2)CC1
active: viability, T/C (second compound 0.0316 µM, first compound 3.16 µM) 9.25% | viability, T/C (second compound 0.0316 µM, first compound 10 µM) 8.97% | viability, T/C (second compound 0.1 µM, first compound 10 µM) 10.2% | viability, T/C [13] 2.45% | viability, T/C [14] 1.65% | viability, T/C [15] 0.61% | viability, T/C [16] 3.85% | viability, T/C (second compound 1 µM, first compound 3.16 µM) 1.22% | viability, T/C (second compound 1 µM, first compound 10 µM) 0.69% | viability, T/C [17] 0.85% | viability, T/C [18] 1.39% | viability, T/C [19] 0.92% | viability, T/C [20] 2.55% | viability, T/C (second compound 3.16 µM, first compound 3.16 µM) 2.07% | viability, T/C (second compound 3.16 µM, first compound 10 µM) 1.24% | viability, T/C [21] 1.95% | viability, T/C [22] 3.43% | viability, T/C [23] 0.65% | viability, T/C [24] 0.96% | viability, T/C (second compound 10 µM, first compound 3.16 µM) 1.3% | viability, T/C (second compound 10 µM, first compound 10 µM) 0.72%
< 31.6 nM: IC50 (second compound 0.0316 µM) | IC50 (second compound 0.1 µM) | IC50 (second compound 0.316 µM) | IC50 (second compound 1 µM) | IC50 (second compound 3.16 µM) | IC50 (second compound 10 µM)
inactive: viability, T/C [1] 15.6% | viability, T/C [2] 13.7% | viability, T/C [3] 8.66% | viability, T/C [4] 12.4% | viability, T/C [5] 14.4% | viability, T/C [6] 14.6% | viability, T/C [7] 11.3% | viability, T/C [8] 11.4% | viability, T/C (second compound 0.1 µM, first compound 3.16 µM) 10.2% | viability, T/C [9] 13.3% | viability, T/C [10] 13.2% | viability, T/C [11] 12.5% | viability, T/C [12] 12.5% | viability, T/C (second compound 0.316 µM, first compound 3.16 µM) 13.6% | viability, T/C (second compound 0.316 µM, first compound 10 µM) 12.1%

CCc1c2c(nc3ccc(O)cc13)-c1cc3c(c(=O)n1C2)COC(=O)[C@]3(O)CC + CN1CCN(c2cc(C(=O)Nc3cc4cc(-c5cnn(C)c5)ccc4cn3)ccn2)CC1
active: viability, T/C [10] 8.65% | viability, T/C [11] 2.67% | viability, T/C [12] 1.34% | viability, T/C (second compound 1 µM, first compound 0.00316 µM) 1.11% | viability, T/C (second compound 1 µM, first compound 0.01 µM) 3.1% | viability, T/C [13] 1.69% | viability, T/C [14] 0.66% | viability, T/C [15] 1.14% | viability, T/C [16] 1.75% | viability, T/C (second compound 3.16 µM, first compound 0.00316 µM) 0.95% | viability, T/C (second compound 3.16 µM, first compound 0.01 µM) 2.49% | viability, T/C [17] 1.5% | viability, T/C [18] 1.25% | viability, T/C [19] 2.1% | viability, T/C [20] 1.56% | viability, T/C (second compound 10 µM, first compound 0.00316 µM) 0.8% | viability, T/C (second compound 10 µM, first compound 0.01 µM) 1.71% | viability, T/C [21] 0.41% | viability, T/C [22] 1.3% | viability, T/C [23] 0.67% | viability, T/C [24] 0.26%
14.1 nM: IC50 (second compound 0.1 µM)
< 3.16 nM: IC50 (second compound 0.316 µM) | IC50 (second compound 1 µM) | IC50 (second compound 3.16 µM) | IC50 (second compound 10 µM)
22.6 nM: IC50 (second compound 0.0316 µM)
inactive: viability, T/C (second compound 0.0316 µM, first compound 0.00316 µM) 82.2% | viability, T/C (second compound 0.0316 µM, first compound 0.01 µM) 73.1% | viability, T/C [1] 39.9% | viability, T/C [2] 22.3% | viability, T/C [3] 19.1% | viability, T/C [4] 14.1% | viability, T/C (second compound 0.1 µM, first compound 0.00316 µM) 66.9% | viability, T/C (second compound 0.1 µM, first compound 0.01 µM) 58.6% | viability, T/C [5] 31.4% | viability, T/C [6] 17.5% | viability, T/C [7] 14.3% | viability, T/C [8] 8.76% | viability, T/C (second compound 0.316 µM, first compound 0.00316 µM) 17.9% | viability, T/C (second compound 0.316 µM, first compound 0.01 µM) 19% | viability, T/C [9] 14.4%

Reference: PubChem BioAssay AID2060625 (Molecular Pharmacology Branch, DTP, NCI, 2025)
